Type in all cases: in vivo
The subject of series [1] is Carrageenin edema. Nature of the series: Antiinflammatory action (rat, Carrageenin edema). The following applies: 6 rats. The text has this: Antiinflammatory action
(Rat, Carrageenin edema)
Background: The carrageenan paw model is a standard test of acute inflammation.

Series [2] has as its system Mouse. Nature of the series: Acute toxicity (mouse, oral, mortality). The conditions noted are these: 500 mg/kg oral; observed for 7 days after dosing, mortality after 8 days. An excerpt:
The acute toxicity data for some representative isoxazolo[3,4-d]pyrimidines(I) are given below in Table 3.
(Mouse, observed for 7 days after dosing, mortality

For series [3], the system named is phenylquinone-writhing. Nature of the series: Analgesic action (mouse, phenylquinone-writhing test). The conditions noted are these: 10 mice. An excerpt: |(mouse, phenylquinone-writhing test)
Background: An intraperitoneal irritant provokes the stretching counted in writhing tests.

[4] abbreviates: 12.5 mg/kg oral, first experiment, control 0.543 ± 0.032.
Where [5] appears, read: 25 mg/kg oral, first experiment, control 0.543 ± 0.032.
Where [6] appears, read: 25 mg/kg oral, first experiment, control 12.7 ± 2.5.
[7] abbreviates: 25 mg/kg oral, second experiment, control 17.3 ± 2.6.
The mark [8] stands for this setting: 50 mg/kg oral, first experiment, control 12.7 ± 2.5.
The mark [9] stands for this setting: 50 mg/kg oral, second experiment, control 17.3 ± 2.6.
Where [10] appears, read: 6.25 mg/kg oral, second experiment, control 0.512 ± 0.017.
Where [11] appears, read: 12.5 mg/kg oral, second experiment, control 0.512 ± 0.017.
The mark [12] stands for this setting: 12.5 mg/kg oral, second experiment, control 17.3 ± 2.6.
Where [13] appears, read: 25 mg/kg oral, third experiment, control 13.7 ± 1.2.

This note sets out measurements from patent US4202975A, “Isoxazolo[3,4-d]pyrimidines” (Takeda Chemical Industries, Ltd., priority 1976, dated 1980).

Each structure is given as a SMILES string.

`Cc1onc2c1c(=O)n(C)c(=O)n2C` [Ia, 3,5,7-Trimethyl-5H,7H-isoxazolo[3,4-d]pyrimidine-4,6-dione]: the “% Suppression” value is 21.4% in series [1] (setting [4]); 35.5% in series [1] (setting [5]); 54.3% in series [3] (setting [6]); 67.1% in series [3] (setting [7]); 55.9% in series [3] (setting [8]); 93.1% in series [3] (setting [9]). Further, the figures for the “Volume of edema & standard error” value in series [1] (setting [4]) and in series [1] (setting [5]) were 0.427 ± 0.030 mL and 0.350 ± 0.061 mL, respectively. Also, the Mortality in series [2] was 1/5. Besides, the “Average number of writhings & standard error” value is reported as 5.8 ± 2.4 in series [3] (setting [6]), 5.7 ± 1.5 in series [3] (setting [7]), 5.6 ± 2.3 in series [3] (setting [8]) and 1.2 ± 0.5 in series [3] (setting [9]).
As to `Cn1c(=O)c2conc2n(C)c1=O` [Ib, 5,7-Dimethyl-5H,7H-isoxazolo[3,4-d]pyrimidine-4,6-dione], the “% Suppression” value in series [1] (setting [10]) was determined as 21.9%; in series [1] (setting [11]) it was 32.0%; in series [3] (setting [12]), 54.9%; in series [3] (setting [6]) it was 63.8%; in series [3] (setting [7]) it was 77.5%; in series [3] (setting [8]), 92.1%. For the same compound, the “Volume of edema & standard error” value worked out at 0.400 ± 0.037 mL in series [1] (setting [10]) and 0.348 ± 0.014 mL in series [1] (setting [11]). In addition, in series [2], the Mortality is recorded as 1/5. For the same compound, the “Average number of writhings & standard error” value in series [3] (setting [12]) is 7.8 ± 1.9; in series [3] (setting [6]), 4.6 ± 1.2; in series [3] (setting [7]), 3.9 ± 1.0; in series [3] (setting [8]), 1.0 ± 0.8.
With `CCn1c(=O)c2conc2n(CC)c1=O` [Ic], in series [3] (setting [13]), the “% Suppression” value is 47.4% and the “Average number of writhings & standard error” value worked out at 7.2 ± 1.5.
Take `COc1ccc2c3c1O[C@H]1[C@@H](O)C=C[C@H]4[C@@H](C2)N(C)CC[C@@]341` [Codeine phosphate, reference compound]: in series [3] (setting [6]), the “% Suppression” value turned out to be 72.4% and the “Average number of writhings & standard error” value came to 3.5 ± 1.2.
